# Source: patent publication US10292992B2, “Selective high-affinity polydentate ligands and methods of making such” (LAWRENCE LIVERMORE NATIONAL SECURITY, LLC, priority 2008, dated 2019)
# Key:
# HLA-DR10 protein = experiment: Surface plasmon resonance binding of SHALs to isolated HLA-DR10 protein; set-up: species or system human
# Source text: In certain embodiments, the binding affinities of the best SHALs can be estimated by mass spectrometry of the SHAL-target complexes, followed by a more accurate surface plasmon resonance (SPR) spectroscopy (Shuck (1997) Annu Rev Biophys Biomol Struct., 26: 541-566; Van Regenmortal (2001) Cell Mol Life Sci., 58: 794-800) measurement of the SHAL-target binding affinity using for example, the IASYS Plus or BiaCore instruments. In order to perform the SPR measurement, biotin can be added to the linker through a third functional group (as described above) and the SHAL can be bound to commercially available streptavidin coated chips. […] Experiments can be performed to test the selectivity of SHAL binding to targets in the presence of molecules related to the targets. Thus, for example, where the SHAL is directed to HLA-DR10, the SHAL can be evaluated for its ability to bind target molecules in the presence of Raji cell surface proteins extracted and separated by affinity chromatography. After treating the gel with the biotinylated SHAL and rinsing out excess unbound SHAL, the location of the bound SHAL can be detected by staining with Rhodamine tagged streptavidin.
# Protein binding experiments were conducted using surface plasma resonance on a Biacore 3000 (Biacore, Piscataway, N.J.) at 25° C. A research grade streptavidin immobilized chip (SA chip, Biacore) was preconditioned and normalized according to the manufacturers instructions. Biotin labeled SHALs were dissolved in DMSO and diluted in 1.05×PBS (Biacore) to a final concentration of 1×PBS pH 7.4, 5% DMSO, to match the running buffer. These SHALs were injected over the flow cell to yield a surface density of 500-1000RU (response units). Biotin (50 μM E-Z Link Amine-PEO2-Biotin, Pierce) was injected over all cells for 1 minute at 20 μl/min as a block to reduce non-specific binding. One flow cell was used as a reference cell and a different SHAL was immobilized on each of the three other cells.
# Experiments measuring the binding of HLA-DR10 to the SHALs were carried out at a flow rate of 30 μl/minute in PBS pH7.4 running buffer using all 4 flow cells. HLA-DR10 isolated from Raji cells (Rose et al. (1996) Cancer Immunol Immunother 43:26-30) was diluted in running buffer to a final concentration ranging from […] and a series of concentrations were run randomly in triplicate. Protein was injected for 3 minutes, allowed to dissociate for 5 minutes followed by regeneration of the surface using a 1 minute injection of 0.1% sodium dodecylsulfate (SDS) followed by a washing step with a 2 minute injection of running buffer. The data, which were double referenced by subtracting the blank reference surface and an average of 5 blank injections, were processed using the program SCRUBBER (University of Utah).
# Using homology modeling, HLA-DR amino acid residues critical for Lym-1 binding were mapped on a 3-D model of the HLA-DR10ß subunit (Balhorn et al, (2007) Clin. Cancer Res., 13(Suppl. 18): S5621-S5628). Cavities within the Lym-1 epitopic surface of the protein were identified using SPHGEN (Kuntz et al. (1982) J. Mol Biol. 161: 269-288; Desjarlais et al. (1988) J. Med. Chem., 31: 722-729). After computational ligand docking for each of the cavities, a combination of NMR spectroscopy, surface plasmon resonance (BIAcore 3000; Biacore, Piscataway, N.J.) and competitive binding experiments were used to confirm ligand binding to HLA-DR10 protein. […]
# Raji xenografts [1] = experiment: Efficacy in mice with Raji xenografts; type: in vivo, athymic Balb/c nu/nu mice
# Source text: Seven- to nine-week old female, athymic Balb/c nu/nu mice (Harlan Sprague Dawley, Inc., Frederick, Md.) were maintained according to University of California animal care guidelines under pathogen-free conditions and on a normal ad libitum diet. Raji or Jurkat's cells harvested in log phase and having >95% viability were implanted (6×10^6 cells) subcutaneously in the lower abdomen 3-4 days after the mice were irradiated (400 cGy) to suppress xenograft rejection. When xenografts reached 20-500 mm3 by caliper measurement, the mice were sorted by xenograft volume into 4 groups: SHAL-treated mice with Raji xenografts, SHAL-treated mice with Jurkat's xenografts, untreated mice with Raji xenografts or untreated mice with Jurkat's xenografts. Each mouse was injected with 100 μl of PBS or 100 ng DOTA-chelated tridentate SHAL i.p. on days 0, 7 and 14. Xenograft volume and survival were monitored for ≥84 days. The mice were also weighed 2-3 times each week for 4 weeks then weekly. Blood counts were measured prior to each SHAL or PBS dose and weekly for 4 weeks after the final dose using a Z Series Coulter Counter (Beckman Coulter Inc., Hialeah, Fla.) and a phase contrast microscope (Zeiss, Jena, Germany).
# Xenograft volumes were calculated by the formula for hemiellipsoids (DeNardo et al. (1997) Clin. Cancer Res. 3: 71-79). […] If a xenograft became >2000 mm3, the mouse was euthanized in accordance with University of California animal care guidelines and scored as a disease-related death.
# Initial analysis compared response rates by exact tests and survival times by log-rank tests for untreated Raji and Jurkat's mice and found no significant differences, so these groups were pooled for subsequent analysis. Response rates for treated Raji, treated Jurkat's and untreated mice were compared by x^2 and exact tests. Survival times were censored at 84 days for mice who had not died or been euthanized because of tumor growth before that time. Times were summarized descriptively by Kaplan-Meier curves and median survival and 95% confidence limits were obtained by the product-limit estimate. The two treated groups were compared to the untreated using a log-rank test for homogeneity across groups, followed by a proportional hazards model to estimate the effect of treatment compared to no treatment. Analyses were carried out using SAS/SAT® software (SAS Institute, Inc. SAS/STAT Version 9.0. 2004. Cary, N.C.: SAS Institute). All tests were two-sided at level 0.05.
# Raji xenografts [2] = experiment: Electron microscopy of Raji xenografts after SHAL treatment; type: in vivo, mice; conditions: after 100 ng of biotinylated SHAL
# Method: Raji xenografts (53-132 mm^3) were harvested for EM from mice, untreated (control) and 2, 4 or 24 h after 100 ng of biotinylated SHAL.
SMILES,binding to isolated HLA-DR10 (in words) (HLA-DR10 protein),"Kd (HLA-DR10 protein; biotinylated versions of the SHALs immobilized on streptavidin chip, HLA-DR10 isolated from Raji cells) [nM]","ORR (overall response rate) (Raji xenografts [1]; 100 ng DOTA-chelated tridentate SHAL i.p. days 0, 7 and 14) [%]","Cure (Raji xenografts [1]; 100 ng DOTA-chelated tridentate SHAL i.p. days 0, 7 and 14, censored at 84 days) [%]",overall survival (FIG. 31) (Raji xenografts [1]; 100 ng SHAL i.p. once weekly for 3 consecutive weeks),"median survival time (Raji xenografts [1]; 100 ng SHAL i.p. weekly x3, censored at 84 days)",xenograft response in one mouse (FIG. 30) (Raji xenografts [1]; by three weeks after the initial 100 ng dose i.p.),persistence of cures (Raji xenografts [1]; cures at 84 days),"reduction in hazard of death (Raji xenografts [1]; treated Raji mice compared to untreated and treated Jurkat's mice, proportional hazards model) [%]",time at which regression began after initial SHAL treatment (Raji xenografts [1]; treated Raji xenografts) [days],time to complete remission after initial SHAL treatment (Raji xenografts [1]; treated Raji xenografts) [days],electron microscopy findings in xenograft cells (Raji xenografts [2]),electron microscopy findings in xenograft cells (Raji xenografts [2]; listed as SHAL),SHAL binding to HLA-DR10 on Lym-1 addition (HLA-DR10 protein; isolated or recombinant HLA-DR10 protein)
CC(=O)NC(CCCNC(=N)N)C(=O)NC(CCCNC(=N)N)C(=O)NC(CCCNC(=N)N)C(=O)NC(CCCNC(=N)N)C(=O)NC(CCCNC(=N)N)C(=O)NC(CCCNC(=N)N)C(=O)NCCCCC(NC(=O)C(CCCCNC(=O)COCCOCCNC(=O)COCCOCCNC(=O)COCCOCCNC(=O)C(CCCCNC(=O)COCCOCCNC(=O)c1ccc(NC(=O)C(CCCNC(=N)N)NC(=O)c2ccccc2)cc1)NC(=O)C(NS(=O)(=O)c1ccc(N=Nc2ccc(N(C)C)cc2)cc1)C(C)C)NC(=O)COCCOCCNC(=O)COCCOCCNC(=O)COCCOCCNC(=O)C(CCCCNC(=O)COCCOCCNC(=O)c1ccc(NC(=O)C(CCCNC(=N)N)NC(=O)c2ccccc2)cc1)NC(=O)C(NS(=O)(=O)c1ccc(N=Nc2ccc(N(C)C)cc2)cc1)C(C)C)C(=O)NC(CCCCNC(=O)CN1CCN(CC(=O)O)CCN(CC(=O)O)CCN(CC(=O)O)CC1)C(=O)O (stereo not drawn) [(DvLPBaPPP)2LArg6AcLLDo],did not interfere with SHAL binding to the protein,~34,,,,,,,,,,,,
CC(C)C(NS(=O)(=O)c1ccc(N=Nc2ccc(N(C)C)cc2)cc1)C(=O)NCCOCCOCC(=O)NC(CCCCNC(=O)C(CCCCNC(=O)CC(=O)Nc1ccccc1Oc1ncc(C(F)(F)F)cc1Cl)NC(=O)COCCOCCNC(=O)c1ccc(N2CCN(Cc3ccc(Cl)cc3)CC2)c([N+](=O)[O-])c1)C(=O)NCCOCCOCC(=O)NC(CCCCNC(=O)CN1CCN(CC(=O)O)CCN(CC(=O)O)CCN(CC(=O)O)CC1)C(=O)O (stereo not drawn) [tridentate SHAL],better than nanomolar,,77,69,longest survival,not estimable,completely regressed,persisted over a 210-day observation time,85,~7,~30,highly condensed nuclear chromatin and fragmented organelles,condensed and fragmented chromatin and loss of cytoplasmic structures consistent with autophagic death,blocked by Lym-1 addition
